These results are taken from patent US20260207621A1 (Vividion Therapeutics, Inc., priority 2022, published 2026).

Experiment [1] deals with Nrf2. Put plainly: Nrf2 antagonism assay: ARE luciferase reporter in KYSE-70 cells. It counts as cell-based. The note with it: positive Imax corresponds to Nrf2 antagonism; for Emax: Homo sapiens, KYSE-70, KYSE-70 cells, read-out: KYSE70 Cellular ARE Luciferase Imax (%); for KYSE70 Cellular ARE Luciferase Imax (%): KYSE-70 cells. In outline: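 Dose-response curves give IC50 and Imax, with positive Imax read as Nrf2 antagonism, i.e. reduced luciferase signal. Reporter cells are Nrf2-high KYSE-70 (Nrf2 W24C mutant) bearing ARE-controlled luciferase. Antagonists are proposed to act at KEAP1 C151, speeding Nrf2 degradation.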
(In a reporter assay the amount or activity of a reporter protein is the signal.)

Experiment [2] addresses T1, KEAP1 C151 (Homo sapiens, UniProt Q14145).
T1 construct: treating 500 μg of cell lysate generated from MDA-MB-468 breast cancer cells with DMSO or compound; endogenous in cells; host or cells: MDA-MB-468 breast cancer cell lysate
The experiment can be described thus: Nrf2 TMT measurement: in vitro TE50 for KEAP1 C151 (IA-DTB competition, targeted TMT mass spectrometry) in MDA-MB-468 cell lysate. Format: binding. As to conditions: in vitro target engagement of KEAP1 C151, targeted TMT, read-out: KEAP1_C151 TE50. In outline:
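Occupancy of KEAP1 C151 measured as loss of IA-DTB labeling (200 μM, 1 h, room temperature) after 1 h compound pre-treatment of MDA-MB-468 cell lysate.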

T1 sequence (Q14145 whole entry): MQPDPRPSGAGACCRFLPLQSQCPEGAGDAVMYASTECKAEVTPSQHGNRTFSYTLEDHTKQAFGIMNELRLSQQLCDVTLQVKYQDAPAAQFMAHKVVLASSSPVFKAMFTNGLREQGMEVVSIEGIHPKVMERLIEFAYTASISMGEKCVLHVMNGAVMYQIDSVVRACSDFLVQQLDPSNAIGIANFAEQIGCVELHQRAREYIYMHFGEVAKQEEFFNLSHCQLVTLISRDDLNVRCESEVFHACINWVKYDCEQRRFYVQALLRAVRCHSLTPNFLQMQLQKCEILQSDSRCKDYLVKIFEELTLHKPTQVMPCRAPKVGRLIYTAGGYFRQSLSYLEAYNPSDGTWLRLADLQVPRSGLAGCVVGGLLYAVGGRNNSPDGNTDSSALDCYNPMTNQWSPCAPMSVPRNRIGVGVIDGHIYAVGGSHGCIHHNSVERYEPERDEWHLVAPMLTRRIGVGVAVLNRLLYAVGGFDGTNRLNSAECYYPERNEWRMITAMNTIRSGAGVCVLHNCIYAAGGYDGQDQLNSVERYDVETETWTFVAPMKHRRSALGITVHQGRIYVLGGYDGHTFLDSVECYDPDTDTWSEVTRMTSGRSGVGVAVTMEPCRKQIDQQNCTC

Turning to `C=CC(=O)N1CCS(=O)(=O)CC1c1cc(Cl)cc(-c2cc(C)ncn2)c1` (single isomer, unassigned) [Compound 52, 1-(3-(3-chloro-5-(6-methylpyrimidin-4-yl)phenyl)-1,1-dioxidothiomorpholino)prop-2-en-1-one], the Emax in experiment [1] was determined as 80%. In addition, the IC50 in experiment [2] turned out to be 174 nM.

For the compound `C=CC(=O)N1CCOC[C@H]1c1cc(Cl)cc(-c2cnc(N)c(OC)n2)c1` (single isomer, unassigned) [Compound 255], the Emax in experiment [1] amounted to 93%. Moreover, the IC50 in experiment [2] is 50 nM.

For the compound `C=CC(=O)N1[C@H](C)COC[C@H]1c1cc(Cl)cc(-c2ncnc3[nH]cnc23)c1` (single isomer, unassigned) [Compound 137], the Emax in experiment [1] was determined as 92%. Further, in experiment [2], the IC50 is 25 nM.

In the case of `C=CC(=O)N1CCOC[C@H]1c1cc(Cl)cc(-c2nc(N)nc(NC)n2)c1` (single isomer, unassigned) [Compound 218], the Emax in experiment [1] came out at 92%. Besides, the IC50 in experiment [2] amounted to 16 nM.

`C=CC(=O)N1CCOC[C@H]1c1cc(Cl)cc(-c2ccnc(OC)c2)c1` (single isomer, unassigned) [Compound 91]: in experiment [1], the Emax was determined as 82%. For the same compound, in experiment [2], the IC50 was 11 nM.

For the compound `C=CC(=O)N1CCN(S(C)(=O)=O)C[C@H]1c1cc(Cl)cc(-c2ccnc(N)n2)c1` (single isomer, unassigned) [Compound 124], in experiment [1], the Emax was 72%. The IC50 in experiment [2] was found to be 18 nM.

In the case of `C=CC(=O)N1CCOCC1c1cc(C#N)cc(-c2ccc(F)c(C(N)=O)c2)c1` (single isomer, unassigned) [Compound 67, 3′-(4-acryloylmorpholin-3-yl)-5′-cyano-4-fluoro-[1,1′-biphenyl]-3-carboxamide], the Emax in experiment [1] worked out at 73%. In experiment [2], the IC50 is 19 nM.

For `C=CC(=O)N1CCOC[C@H]1c1cc(Cl)cc(-c2cnc(N)c(F)n2)c1` [Compound 289, (R)-1-(3-(3-(5-amino-6-fluoropyrazin-2-yl)-5-chlorophenyl)morpholino)prop-2-en-1-one], the Emax in experiment [1] came to 95%. The IC50 in experiment [2] was less than 6.4 nM.

`C=CC(=O)N1CCOC[C@H]1c1cc(Cl)cc(-c2ccnc(C#N)n2)c1` (single isomer, unassigned) [Compound 106]: the Emax in experiment [1] is 67%. Further, the IC50 in experiment [2] is 37 nM.

`C=CC(=O)N1CCOCC1c1cc(Cl)cc(-c2cnccn2)c1` (single isomer, unassigned) [Compound 54, 1-(3-(3-chloro-5-(pyrazin-2-yl)phenyl)morpholino)prop-2-en-1-one]: the Emax in experiment [1] worked out at 70%. Moreover, the IC50 in experiment [2] worked out at 49 nM.

As to `C=CC(=O)N1CCOC[C@H]1c1cc(Cl)cc(-c2cc(N)[nH]n2)c1` (single isomer, unassigned) [Compound 235], in experiment [1], the Emax was found to be 86%. In experiment [2], the IC50 is 110 nM.

Turning to `C=CC(=O)N1CCN(C(C)=O)C[C@H]1c1cc(Cl)cc(-c2cc(N)ncn2)c1` (single isomer, unassigned) [Compound 187], in experiment [1], the Emax was determined as 71%. Besides, the IC50 in experiment [2] is 120 nM.

As for `C=CC(=O)N1CCOC[C@H]1c1cc(Cl)cc(-n2cc(N)cn2)c1` (single isomer, unassigned) [Compound 211], in experiment [1], the Emax amounted to 57%. Also, the IC50 in experiment [2] is 85 nM.

Regarding `C=CC(=O)N1CCOC[C@H]1c1cc(Cl)cc(-c2nc(N)nc(NCCCN(C)C)n2)c1` (single isomer, unassigned) [Compound 229], the Emax in experiment [1] was found to be 92%. The IC50 in experiment [2] worked out at 560 nM.

Take `C=CC(=O)N1CCOC[C@H]1c1cc(Cl)cc(N2CCC(N)C2=O)c1` (single isomer, unassigned) [Compound 230]: the Emax in experiment [1] amounted to 51%. Further, the IC50 in experiment [2] turned out to be 820 nM.

As for `C=CC(=O)N1CCOC[C@H]1c1cc(Cl)cc(C2CNC(=O)CO2)c1` (single isomer, unassigned) [Compound 232], in experiment [1], the “KYSE70 Cellular ARE Luciferase Imax (%)” value came to 84%. The IC50 in experiment [2] was 140 nM.

Regarding `C=CC(=O)N1CCOCC1c1cc(Cl)nc(-c2cc[nH]c(=O)c2)c1` (single isomer, unassigned) [Compound 33, 4-(4-acryloylmorpholin-3-yl)-6-chloro-[2,4′-bipyridin]-2′(1′H)-one], the Emax in experiment [1] was found to be 82%. The IC50 in experiment [2] was 120 nM.

In the case of `C=CC(=O)N1CC(C)(C)OC[C@H]1c1cc(Cl)cc(-c2nccc(N)n2)c1` (single isomer, unassigned) [Compound 155], the Emax in experiment [1] came to 94%. For the same compound, the IC50 in experiment [2] came to 67 nM.

`C=CC(=O)N1CCN(C(C)=O)C[C@H]1c1cc(Cl)cc(-c2ncccn2)c1` (single isomer, unassigned) [Compound 17]: the Emax in experiment [1] worked out at 65%. In experiment [2], the IC50 came to 96.3 nM.

`C=CC(=O)N1CCCOCC1c1cc(Cl)cc(-c2ncnc(N)n2)c1` (racemic) [Compound 162, 1-(3-(3-(4-amino-1,3,5-triazin-2-yl)-5-chlorophenyl)-1,4-oxazepan-4-yl)prop-2-en-1-one]: in experiment [1], the Emax was 80%. In experiment [2], the IC50 was found to be 600 nM.

As to `C=CC(=O)N1CC2(CCCC2)OCC1(C)c1cc(Cl)cc(-c2ncc(F)cn2)c1` (single isomer, unassigned) [Compound 166, 1-(8-(3-chloro-5-(5-fluoropyrimidin-2-yl)phenyl)-8-methyl-6-oxa-9-azaspiro[4.5]decan-9-yl)prop-2-en-1-one], the Emax in experiment [1] came out at 50%. Besides, in experiment [2], the IC50 was 530 nM.

As for `C=CC(=O)N1CC[C@](C)(O)C[C@H]1c1cc(Cl)cc(-c2ncc(N)cn2)c1` (single isomer, unassigned) [Compound 265], in experiment [1], the Emax turned out to be 51%. In addition, in experiment [2], the IC50 came out at 11200 nM.

Consider `C=CC(=O)N1[C@H](c2cc(Cl)cc(-c3ncc(N)cn3)c2)COC[C@H]1C(F)F` (single isomer, unassigned) [Compound 291], for which the Emax in experiment [1] stood at 93%. For the same compound, the IC50 in experiment [2] was less than 6.4 nM.

For the compound `C=CC(=O)N1CCOC[C@H]1c1cc(Cl)cc(-c2cnc(=O)n(C)c2)c1` (single isomer, unassigned) [Compound 213], the Emax in experiment [1] is 75%. For the same compound, in experiment [2], the IC50 amounted to 470 nM.

As for `C=C(Cl)C(=O)N1CCOC[C@H]1c1cc(Cl)cc(-c2ncnc(N)n2)c1` (single isomer, unassigned) [Compound 294], the Emax in experiment [1] stood at 91%. Moreover, the IC50 in experiment [2] was found to be 1380 nM.

As for `C=CC(=O)N1[C@H](C(=O)N(C)C)COC[C@H]1c1cc(Cl)nc(-c2cc(N)ncn2)c1` (single isomer, unassigned) [Compound 169], the Emax in experiment [1] stood at 82%. Further, the IC50 in experiment [2] came out at 70 nM.

On to `C=CC(=O)N1CCOC[C@H]1c1cc(Cl)cc(-c2cnc(F)c(N)n2)c1` (single isomer, unassigned) [Compound 279], for which the Emax in experiment [1] worked out at 92%. In addition, in experiment [2], the IC50 stood at 45 nM.

Turning to `C=CC(=O)N1CCOCC1c1cc(Cl)cc(-c2cnn(C)c(=O)c2)c1` (single isomer, unassigned) [Compound 53, 5-(3-(4-acryloylmorpholin-3-y1)-5-chlorophenyl)-2-methylpyridazin-3(2H)-one], the Emax in experiment [1] was 55%. Besides, the IC50 in experiment [2] came to 66 nM.

For the compound `C=CC(=O)N1CCOC[C@H]1c1cc(Cl)cc(-c2cccc(NC(C)=O)c2)c1` (single isomer, unassigned) [Compound 2], the Emax in experiment [1] worked out at 52%. Moreover, the IC50 in experiment [2] was determined as 10.7 nM.

In the case of `C=CC(=O)N1CCS(=O)(=O)CC1c1cc(Cl)cc(-c2ccnc(C)n2)c1` (single isomer, unassigned) [Compound 50, 1-(3-(3-chloro-5-(2-methylpyrimidin-4-yl)phenyl)-1,1-dioxidothiomorpholino)prop-2-en-1-one], the Emax in experiment [1] worked out at 86%. Moreover, the IC50 in experiment [2] came out at 573 nM.

On to `C=CC(=O)N1CCOCC1c1cc(Cl)nc(-c2ccn3ccnc3c2)c1` (single isomer, unassigned) [Compound 64, 1-(3-(2-chloro-6-(imidazo[1,2-a]pyridin-7-yl)pyridin-4-yl)morpholino)prop-2-en-1-one], for which, in experiment [1], the Emax worked out at 75%. Further, the IC50 in experiment [2] turned out to be 1 nM.

Regarding `C=CC(=O)N1[C@H](C)COC[C@H]1c1cc(Cl)nc(-c2ccc(F)c(C(N)=O)c2)c1` (single isomer, unassigned) [Compound 139], in experiment [1], the Emax was found to be 90%. Moreover, the IC50 in experiment [2] stood at 74 nM.

Turning to `C=CC(=O)N1CC[C@](C)(O)C[C@@H]1c1cc(Cl)cc(-c2ncc(N)cn2)c1` (single isomer, unassigned) [Compound 266], in experiment [1], the Emax was found to be 90%. Besides, the IC50 in experiment [2] worked out at 320 nM.

Consider `C=CC(=O)N1CC2(COC2)C1c1cc(Cl)cc(-c2ccnc(N)n2)c1` (single isomer, unassigned) [Compound 168], for which the Emax in experiment [1] is 74%. Moreover, in experiment [2], the IC50 turned out to be 120 nM.

For `C=CC(=O)N1CCOC[C@H]1c1cc(Cl)cc(C2CNC(=S)CO2)c1` (single isomer, unassigned) [Compound 240], the “KYSE70 Cellular ARE Luciferase Imax (%)” value in experiment [1] stood at 61%. Besides, the IC50 in experiment [2] worked out at 150 nM.

As for `C=C(C(=O)N1CCOC[C@H]1c1cc(Cl)cc(-c2ncnc(N)n2)c1)C(F)(F)F` (single isomer, unassigned) [Compound 295], the Emax in experiment [1] was determined as 88%. Also, the IC50 in experiment [2] was 200 nM.

As to `C=CC(=O)N1CC2(CC2)OCC1c1cc(Cl)cc(-c2ccnc(C)n2)c1` (single isomer, unassigned) [Compound 83, 1-(6-(3-chloro-5-(2-methylpyrimidin-4-yl)phenyl)-4-oxa-7-azaspiro[2.5]octan-7-yl)prop-2-en-1-one], the Emax in experiment [1] turned out to be 86%. The IC50 in experiment [2] came out at 89 nM.
